Assay results reported in patent US20240033237A1, “USE OF A-KETOGLUTARATE IN MANUFACTURE OF MEDICAMENT” (TONGJI UNIVERSITY, priority 2019, published 2024).

System: chondrocytes
Test: Amino acid content in chondrocytes upon IL-1β stimulation, LC-MS
Assay type: cell-based, mouse
Conditions: IL-1β treatment for 36 h, untreated 8740.24±584.31
Procedure: Mouse chondrocytes were obtained from 7-day-old C57BL/6 mice (Shanghai Slac laboratory animal Co., Ltd.), and the procedure was as follows: under aseptic surgical conditions, bilateral knee cartilages of C57 mice were carefully stripped and digested with 0.2% neutral collagenase (Serva, Germany) for 8 h; cell precipitates were obtained by centrifugation, and the cells were resuspended in modified Eagle medium (DMEM) (Gibco, USA) containing 10% FBS, inoculated in culture dishes, and cultured with high-sugar DMEM medium (containing 10% FBS, 100 U/mL penicillin and 100 mg/L streptomycin) at 37° C. in a 5% CO2 constant temperature incubator. The medium was changed for the first time at 48 h. […] The cells were collected by centrifugation and resuspended, and the concentration was adjusted for inoculation in culture dishes. The cells were subcultured by the above method, and the obtained cells were labeled as P1, P2, P3 generations, etc. […]
After being treated with IL-1β for 36 h, the chondrocytes were scraped off, and the changes of amino acid content in the chondrocytes were detected by LC-MS.

IL-1β: interleukin-1β used to stimulate chondrocytes
Gln content in chondrocytes: 330±150.32 ng/10^7
